Where two headings read alike, the source gives them in different places.
Experiments:
[1] = target: T1, recombinant human IDO2 (Homo sapiens, UniProt Q6ZQW0); assay: IDO2 UV absorbance assay (L-tryptophan, 321 nm); type: biochemical; details: for Absorbance (net) Repeat 1 / Absorbance (net) Repeat 2: Table 46
T1 construct: purchased 71194
T1 sequence (Q6ZQW0 1-407): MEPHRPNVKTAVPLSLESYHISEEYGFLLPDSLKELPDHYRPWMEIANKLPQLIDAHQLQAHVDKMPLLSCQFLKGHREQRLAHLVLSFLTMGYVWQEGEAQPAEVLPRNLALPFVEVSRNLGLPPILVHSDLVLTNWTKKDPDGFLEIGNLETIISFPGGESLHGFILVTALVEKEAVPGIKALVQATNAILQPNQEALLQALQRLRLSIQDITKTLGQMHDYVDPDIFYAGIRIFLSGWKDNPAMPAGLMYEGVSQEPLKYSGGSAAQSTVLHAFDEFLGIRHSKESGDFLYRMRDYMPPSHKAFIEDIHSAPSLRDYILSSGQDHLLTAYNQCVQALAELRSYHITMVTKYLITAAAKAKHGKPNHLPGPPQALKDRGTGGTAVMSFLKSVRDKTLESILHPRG

[2] = target: T2, recombinant human CD47 (hCD47) with human SIRP-α (Homo sapiens, UniProt Q08722); assay: CD47/SIRP-α in vitro binding assay
T2 construct: purchased 71177 (hCD47, Fc fusion); 71138 (hSIRP-α, Biotin-labeled)
Method: Assay Conditions: CD47 was coated using 50 μL at 2 ng/μL at 4° C. overnight. After wash and block steps the test compounds were added to CD47-coated plate followed by addition of SIRP-α-biotin. Reaction was incubated for 2 h at room temperature. Binding was detected using HRP-conjugated Streptavidin.

[3] = target: T3, human recombinant ARG1 (Homo sapiens, UniProt P05089); assay: ARG1 enzymatic inhibition assay (thioarginine substrate, UV absorbance 412 nm); type: biochemical
T3 sequence (P05089 1-322): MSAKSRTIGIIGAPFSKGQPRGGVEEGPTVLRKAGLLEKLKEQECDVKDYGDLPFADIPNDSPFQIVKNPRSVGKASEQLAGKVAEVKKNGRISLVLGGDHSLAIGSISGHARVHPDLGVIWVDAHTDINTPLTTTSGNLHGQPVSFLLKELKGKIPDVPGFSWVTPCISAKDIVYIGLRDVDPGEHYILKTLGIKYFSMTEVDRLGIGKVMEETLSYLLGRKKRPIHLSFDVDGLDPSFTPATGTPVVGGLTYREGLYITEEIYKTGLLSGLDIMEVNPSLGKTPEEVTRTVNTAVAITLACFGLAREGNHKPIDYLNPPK
Method: (§1) Assay conditions: The assay was performed using human recombinant ARG1 or ARG2 as enzymes and thioarginine as substrate. The UV absorbance at 412 nm was correlated with the amount of reaction product of ARG1/ARG2. […] 5 μl of 20× sample solutions were added to 90 μl of substrate, and reactions were started by the addition of 5 μl of 20× ARG1/ARG2 solutions. For the negative control (Blank), 5 μl of the assay buffer was added instead of the ARG1/ARG2. […] All reactions were conducted at room temperature and incubated for 30 minutes, ensuring that all wells, containing either samples or controls, contained 0.7% (v/v) EtOH final concentration to discard any solvent effect. UV absorbance readings were done at times 0 and 30 minutes to get net values. Absorbance was measured using a Tecan Infinite M1000 microplate reader.
(§2) Data Analysis: Experiment was performed in duplicate at each concentration. The data were analyzed using the software GraphPad Prism. In the absence of the compound, the net absorbance (At) in each data set was defined as 100% activity. In the absence of ARG1/ARG2, the net absorbance (Ab) in each data set was defined as 0% activity. The percent activity in the presence of each compound was calculated according to the following equation: % activity=[(A−Ab)/(At−Ab)]×100, where A=the absorbance in the presence of the compound.

[4] = target: T4, human recombinant ARG2 (Homo sapiens, UniProt P78540); assay: ARG2 enzymatic inhibition assay (thioarginine substrate, UV absorbance 412 nm); type: biochemical
T4 sequence (P78540 23-354): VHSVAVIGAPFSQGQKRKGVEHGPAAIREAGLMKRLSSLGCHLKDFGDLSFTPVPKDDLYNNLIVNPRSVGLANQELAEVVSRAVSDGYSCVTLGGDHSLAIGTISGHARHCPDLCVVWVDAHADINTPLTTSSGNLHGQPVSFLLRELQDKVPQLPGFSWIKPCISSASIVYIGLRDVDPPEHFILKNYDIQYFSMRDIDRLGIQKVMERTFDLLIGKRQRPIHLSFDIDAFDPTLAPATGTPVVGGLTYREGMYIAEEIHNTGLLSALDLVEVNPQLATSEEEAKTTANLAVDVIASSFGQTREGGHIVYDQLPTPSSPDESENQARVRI
Method: as §1, §2

[5] = target: T5, SIRT1 (Homo sapiens, UniProt Q96EB6); assay: SIRT1 fluorogenic HDAC substrate activity assay; type: biochemical
T5 construct: purchased 50012
T5 sequence (Q96EB6 1-747): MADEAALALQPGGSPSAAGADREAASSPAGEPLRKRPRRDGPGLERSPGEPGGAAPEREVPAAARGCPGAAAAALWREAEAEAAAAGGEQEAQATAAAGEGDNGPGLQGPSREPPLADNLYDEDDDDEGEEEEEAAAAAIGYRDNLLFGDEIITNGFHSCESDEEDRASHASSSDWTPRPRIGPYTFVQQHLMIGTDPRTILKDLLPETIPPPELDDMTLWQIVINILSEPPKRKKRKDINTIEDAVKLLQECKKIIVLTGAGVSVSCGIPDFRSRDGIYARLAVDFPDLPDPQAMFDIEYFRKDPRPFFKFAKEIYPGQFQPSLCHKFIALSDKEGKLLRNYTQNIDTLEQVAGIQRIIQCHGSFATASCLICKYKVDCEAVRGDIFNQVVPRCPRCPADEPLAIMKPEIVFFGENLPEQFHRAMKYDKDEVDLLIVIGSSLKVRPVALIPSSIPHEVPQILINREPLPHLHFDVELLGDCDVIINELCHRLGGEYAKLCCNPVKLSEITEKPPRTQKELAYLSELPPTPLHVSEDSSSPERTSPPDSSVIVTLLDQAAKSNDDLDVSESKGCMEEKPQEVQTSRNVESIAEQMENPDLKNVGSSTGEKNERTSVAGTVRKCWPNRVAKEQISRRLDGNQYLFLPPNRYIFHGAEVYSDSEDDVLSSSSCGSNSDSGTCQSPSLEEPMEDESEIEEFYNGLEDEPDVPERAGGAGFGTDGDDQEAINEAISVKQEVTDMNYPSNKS
Method: Assay Conditions: The sample was dissolved in 70% EtOH. The serial dilution of the compound was first performed in 70% EtOH with the highest concentration at 1%.
The enzymatic reactions for the SIRT1 enzyme were conducted in duplicate at 37° C. for 30 minutes in a 50 μl mixture containing SIRT assay buffer, 5 μg BSA, an HDAC substrate (see 2.3.1), a SIRT enzyme, and a test compound. After enzymatic reactions, 50 μl of 2× SIRT Developer was added to each well for the SIRT enzymes and the plate was incubated at room temperature for an additional 15 minutes. Fluorescence intensity was measured at an excitation of 360 nm and an emission of 460 nm using a Tecan Infinite M1000 microplate reader.
Data Analysis: SIRT activity assays were performed in duplicates at each concentration. […] In the absence of the compound, the fluorescent intensity (Ft) in each data set was defined as 100% activity. In the absence of SIRT, the fluorescent intensity (Fb) in each data set was defined as 0% activity. The percent activity in the presence of each compound was calculated according to the following equation: % activity=(F−Fb)/(Ft−Fb), where F=the fluorescent intensity in the presence of the compound.

[6] = read-out: Activity (%) Repeat 1
[7] = read-out: Activity (%) Repeat 2
[8] = test concentration 0.001 μM, read-out: Activity (%) Rep. 1
[9] = test concentration 0.01 μM, read-out: Activity (%) Rep. 1
[10] = test concentration 0.1 μM, read-out: Activity (%) Rep. 1

T2 sequence (Q08722 19-141 limits assumed): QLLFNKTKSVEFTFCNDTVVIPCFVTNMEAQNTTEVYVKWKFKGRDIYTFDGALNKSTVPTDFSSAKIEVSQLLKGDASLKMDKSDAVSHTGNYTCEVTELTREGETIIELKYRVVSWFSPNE

Molecule: NS(=O)(=O)NCCNc1nonc1C(=NO)Nc1ccc(F)c(Br)c1 [INCB024360]
- inhibition at 0.01 µM [1]: 0%
- inhibition at 0.1 µM [1]: 20%
- inhibition at 1 µM [1]: 60%
- Absorbance (net) Repeat 1 ([1]; 0.01 μM): 0.17
- Absorbance (net) Repeat 2 ([1]; 0.01 μM): 0.17
- Absorbance (net) Repeat 1 ([1]; 0.1 μM): 0.14
- Absorbance (net) Repeat 2 ([1]; 0.1 μM): 0.15
- Absorbance (net) Repeat 1 ([1]; 1 μM): 0.10
- Absorbance (net) Repeat 2 ([1]; 1 μM): 0.11
- activity at 0.01 µM [1, 6]: 105%
- activity at 0.1 µM [1, 6]: 75%
- activity at 1 µM [1, 6]: 35%
- activity at 0.01 µM [1, 7]: 105%
- activity at 0.1 µM [1, 7]: 85%
- activity at 1 µM [1, 7]: 45%

Molecule: SIRP-α
- Activity (%) Repeat 1 ([2]; 0.05 μM): 93%
- Activity (%) Repeat 2 ([2]; 0.05 μM): 97%
- Inhibition (%) ([2]; 0.05 μM): 5%
- Luminescence Repeat 1 ([2]; 0.05 μM): 35347
- Luminescence Repeat 2 ([2]; 0.05 μM): 36581
- Activity (%) Repeat 1 ([2]; 0.5 μM): 52%
- Activity (%) Repeat 2 ([2]; 0.5 μM): 51%
- Inhibition (%) ([2]; 0.5 μM): 49%
- Luminescence Repeat 1 ([2]; 0.5 μM): 19746
- Luminescence Repeat 2 ([2]; 0.5 μM): 19259
- Activity (%) Repeat 1 ([2]; 5 μM): 14%
- Activity (%) Repeat 2 ([2]; 5 μM): 18%
- Inhibition (%) ([2]; 5 μM): 84%
- Luminescence Repeat 1 ([2]; 5 μM): 5310
- Luminescence Repeat 2 ([2]; 5 μM): 6891

Molecule: N=C(NO)NCC[C@H](N)C(=O)O [nor-NOHA]
- Net absorbance Rep. 1 ([3]; test concentration 0.001 μM): 0.74
- Net absorbance Rep. 2 ([3]; test concentration 0.001 μM): 0.77
- inhibition at 0.001 µM ([3]; test concentration 0.001 μM, read-out: ARG-1 Inhibition (%)): 0%
- activity at 0.001 µM [3, 8]: 99%
- activity at 0.001 µM ([3]; test concentration 0.001 μM, read-out: Activity (%) Rep.2): 102%
- Net absorbance Rep. 1 ([3]; test concentration 0.01 μM): 0.59
- Net absorbance Rep. 2 ([3]; test concentration 0.01 μM): 0.59
- inhibition at 0.01 µM ([3]; test concentration 0.01 μM, read-out: ARG-1 Inhibition (%)): 22%
- activity at 0.01 µM [3, 9]: 79%
- activity at 0.01 µM ([3]; test concentration 0.01 μM, read-out: Activity (%) Rep.2): 78%
- Net absorbance Rep. 1 ([3]; test concentration 0.1 μM): 0.23
- Net absorbance Rep. 2 ([3]; test concentration 0.1 μM): 0.24
- inhibition at 0.1 µM ([3]; test concentration 0.1 μM, read-out: ARG-1 Inhibition (%)): 69%
- activity at 0.1 µM [3, 10]: 31%
- activity at 0.1 µM ([3]; test concentration 0.1 μM, read-out: Activity (%) Rep.2): 31%
- Net absorbance Rep. 1 ([4]; test concentration 0.001 μM): 0.78
- Net absorbance Rep. 2 ([4]; test concentration 0.001 μM): 0.82
- inhibition at 0.001 µM ([4]; test concentration 0.001 μM, read-out: ARG-2 Inhibition (%)): 17%
- activity at 0.001 µM [4, 8]: 81%
- activity at 0.001 µM ([4]; test concentration 0.001 μM, read-out: Activity (%) Rep. 2): 84%
- Net absorbance Rep. 1 ([4]; test concentration 0.01 μM): 0.56
- Net absorbance Rep. 2 ([4]; test concentration 0.01 μM): 0.60
- inhibition at 0.01 µM ([4]; test concentration 0.01 μM, read-out: ARG-2 Inhibition (%)): 41%
- activity at 0.01 µM [4, 9]: 57%
- activity at 0.01 µM ([4]; test concentration 0.01 μM, read-out: Activity (%) Rep. 2): 62%
- Net absorbance Rep. 1 ([4]; test concentration 0.1 μM): 0.19
- Net absorbance Rep. 2 ([4]; test concentration 0.1 μM): 0.19
- inhibition at 0.1 µM ([4]; test concentration 0.1 μM, read-out: ARG-2 Inhibition (%)): 81%
- activity at 0.1 µM [4, 10]: 19%
- activity at 0.1 µM ([4]; test concentration 0.1 μM, read-out: Activity (%) Rep. 2): 19%

Molecule: Cc1ccc(C(=O)Nc2ccc(S(=O)(=O)O)c3cc(S(=O)(=O)O)cc(S(=O)(=O)O)c23)cc1NC(=O)c1cccc(NC(=O)Nc2cccc(C(=O)Nc3cc(C(=O)Nc4ccc(S(=O)(=O)O)c5cc(S(=O)(=O)O)cc(S(=O)(=O)O)c45)ccc3C)c2)c1 [Suramin]
- inhibition at 0.1 µM [5]: 14%
- inhibition at 1 µM [5]: 74%
- activity at 0.1 µM ([5]; read-out: % Activity Repeat 1): 85%
- activity at 1 µM ([5]; read-out: % Activity Repeat 1): 26%
- activity at 0.1 µM ([5]; read-out: % Activity Repeat 2): 86%
- activity at 1 µM ([5]; read-out: % Activity Repeat 2): 26%
- SIRT1 Activity (Fluorescence count) Repeat 1 ([5]; test concentration 0.01 μM): 2415
- SIRT1 Activity (Fluorescence count) Repeat 2 ([5]; test concentration 0.01 μM): 2415
- inhibition at 0.01 µM ([5]; test concentration 0.01 μM): 0%
- activity at 0.01 µM ([5]; test concentration 0.01 μM, read-out: % Activity Repeat 1): 100%
- activity at 0.01 µM ([5]; test concentration 0.01 μM, read-out: % Activity Repeat 2): 100%
- SIRT1 Activity (Fluorescence count) Repeat 1 ([5]; test concentration 0.1 μM): 2074
- SIRT1 Activity (Fluorescence count) Repeat 2 ([5]; test concentration 0.1 μM): 2082
- SIRT1 Activity (Fluorescence count) Repeat 1 ([5]; test concentration 1 μM): 710
- SIRT1 Activity (Fluorescence count) Repeat 2 ([5]; test concentration 1 μM): 702

Source: US11752188B2, “Compositions and methods for nutritional supplements” (DailyColors Health Inc., priority 2020, dated 2023)
